Paper PMC10786919, “Design-rules for stapled peptides with in vivo activity and their application to Mdm2/X antagonists” (Nature Communications, 2024)
Where two headings read alike, the source gives them in different places. Positions of bridges follow the written chain, without caps; N, C: chain ends. Non-standard residues stand in square brackets, D forms with d. Residues, ends and D or L forms follow the SMILES beside them. 2Nal = N[C@@H](Cc1ccc2ccccc2c1)C(=O)O; R8 = C=CCCCCCC[C@@](C)(N)C(=O)O; S5 = C=CCCC[C@](C)(N)C(=O)O; Ahx = NCCCCCC(=O)O

How the values were obtained:
human Mdm2 1–125 = molecular target: T1, human Mdm2 1–125 (Homo sapiens, UniProt Q00987); assay: Mdm2 binding by competitive fluorescence anisotropy assay (FP binding); conditions: read-out: FP binding assay KD
T1 construct: GST (N); His6 (internal); TEV cleavage site (ENLYFQG) (internal); made in house; host or cells: BL21 (DE3) Rosetta T1R Escherichia coli
Description: The TEV (tobacco etch virus) cleavage site was changed from ENLYFQS to ENLYFQG to give a fusion protein with the following sequence:
[P] is the protein concentration (Mdm2), [L] is the labeled peptide concentration, r is the anisotropy measured, r0 is the anisotropy of the free peptide, rb is the anisotropy of the Mdm2–FAM-labeled peptide complex, Kd is the dissociation constant, [L]t is the total FAM labeled peptide concentration, and [P]t is the total Mdm2 concentration. […] This value was then used to determine apparent Kd values of the respective competing ligands in subsequent competition assays in fluorescence anisotropy experiments.
The competing molecules were then titrated against the complex of the FAM-labeled peptide and protein. Apparent Kd values were determined by fitting the experimental data to equations shown below:2 r=ro+(rb−ro)×2(d^2−3e)cos(θ/3)−9/3Kd1+2(d^2−3e)cos(θ/3)−d 3 d=Kd1+Kd2+[L]st+[L]t−Pt 4 e=Lt−PtKd1+Lst+PtKd2+Kd1Kd2 5 f=−Kd1Kd2[P]t 6 θ=arcos−2d^3+9de−27f/2(d^2−3e)^3
[L]st and [L]t denote labeled ligand and total unlabeled ligand input concentrations, respectively. Kd2 is the dissociation constant of the interaction between the unlabeled ligand and the protein. In all competition experiments, it is assumed that [P]t > [L]st, otherwise considerable amounts of free labeled ligand would always be present and would interfere with measurements. […] The FAM-labeled peptide was dissolved in dimethyl sulfoxide (DMSO) at 1 mM and diluted into experimental buffer. Readings were carried out with an Envision Multilabel Reader (PerkinElmer). […] Curve-fitting was carried out using Prism 4.0 (GraphPad). […] Negative control titrations of the ligands under investigation were also carried out with the fluorescently labeled peptide (in the absence of Mdm2) to ensure no interactions were occurring between the ligands and the FAM-labeled peptide. […] Measurements were taken a minimum of three times (biological replicates) and values are reported as geometric means of the replicates.

HCT116 cells = assay: Lactate dehydrogenase (LDH) release assay; format: cell-based
Method in brief: (§1)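 A p53 β-lactamase reporter HCT116 line, 8000 cells per well, is exposed to test compounds at 0.5% final DMSO and scored for LDH leakage.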

[1] = Lactate dehydrogenase (LDH) release assay; format: cell-based; conditions: LDH: Cytotoxicity assay EC50
Method in brief: as §1

[2] = system: Jump-In T-REx CHO-K1 BLA cells; assay: cells; format: cell-based; conditions: for EC50: read-out: TETCHO: Counterscreen EC50
[3] = system: p53 responsive β-lactamase reporter in HCT116 cells; assay: cells; format: cell-based; conditions: read-out: p53 reporter assay EC50
Method in brief: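 HCT116 cells stably carrying a p53-responsive β-lactamase reporter, seeded at 8000 cells/well, with 0.5% DMSO final. Reporter activity read by ToxBLAzer Dual Screen. Values are geometric means of at least three biological replicates.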

T1 sequence (Q00987 with tags, fused parts or gaps): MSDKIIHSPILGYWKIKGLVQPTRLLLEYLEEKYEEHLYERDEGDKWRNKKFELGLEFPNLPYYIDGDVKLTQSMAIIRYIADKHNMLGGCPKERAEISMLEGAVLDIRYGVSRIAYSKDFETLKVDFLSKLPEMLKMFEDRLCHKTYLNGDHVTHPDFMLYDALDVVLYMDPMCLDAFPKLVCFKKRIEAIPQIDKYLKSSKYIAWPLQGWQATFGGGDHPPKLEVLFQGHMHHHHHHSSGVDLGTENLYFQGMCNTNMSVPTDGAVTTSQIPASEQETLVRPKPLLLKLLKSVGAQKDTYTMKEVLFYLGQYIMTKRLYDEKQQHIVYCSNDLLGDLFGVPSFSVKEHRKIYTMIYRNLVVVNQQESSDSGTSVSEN

| Compound | Kd (human Mdm2 1–125) [µM] | LDH: Cytotoxicity assay % Effect (HCT116 cells) [%] | EC50 [1] [µM] | TETCHO: Counterscreen % Effect ([2]; 0% FBS 4Hr) [%] | EC50 ([2]; 0% FBS 4Hr) [µM] | EC50 ([3]; 0% FBS 4Hr) [µM] | TETCHO: Counterscreen % Effect ([2]; 0% FBS 16Hr) [%] | EC50 ([3]; 0% FBS 16Hr) [µM] |
| --- | --- | --- | --- | --- | --- | --- | --- | --- |
| CC(C)C[C@@H]1NC(=O)[C@H](C)NC(=O)[C@H](Cc2c[nH]c3ccccc23)NC(=O)[C@H](Cc2ccc(O)cc2)NC(=O)[C@H](CCC(=O)O)NC(=O)[C@](C)(NC(=O)[C@H](Cc2ccccc2)NC(=O)[C@H](CO)NC(=O)[C@@H](NC(=O)[C@H](CO)NC(=O)CNC(=O)[C@@H](N)CO)[C@@H](C)O)CCCCCCC=CCCC[C@@](C)(C(N)=O)NC(=O)[C@H](CC(C)C)NC1=O [MP-132] | 0.0459 | 1.056 | > 50 | 9.469 | > 50 | 39.6 | – | – |
| CC(=O)N[C@H](C(=O)N[C@@H](CO)C(=O)N[C@@H](Cc1ccccc1)C(=O)N[C@]1(C)CCCCCCC=CCCC[C@@](C)(C(N)=O)NC(=O)[C@H](CC(C)C)NC(=O)[C@H](CC(C)C)NC(=O)[C@H](C)NC(=O)[C@H](Cc2c[nH]c3ccccc23)NC(=O)[C@H](Cc2ccc(O)cc2)NC(=O)[C@H](Cc2c[nH]cn2)NC1=O)[C@@H](C)O [MP-138] (Ac-TSF[R8]HYWALL[S5]-NH2; staple 4-11) | 0.0879 | 0.2053 | > 50 | 24.03 | > 50 | 4.9 | – | – |
| CC(=O)N[C@H](C(=O)N[C@@H](CO)C(=O)N[C@@H](Cc1ccccc1)C(=O)N[C@]1(C)CCCCCCC=CCCC[C@@](C)(C(=O)N[C@@H](CCC(=O)O)C(N)=O)NC(=O)[C@H](CC(C)C)NC(=O)[C@H](CC(C)C)NC(=O)[C@H](C)NC(=O)[C@H](Cc2c[nH]c3ccccc23)NC(=O)[C@H](Cc2ccc(O)cc2)NC(=O)[C@H](CCC(=O)O)NC1=O)[C@@H](C)O [MP-139] | < 0.001 | 20.87 | 38.8 | 1.538 | > 50 | 6.25 | – | – |
| CC(=O)N[C@H](C(=O)N[C@@H](CO)C(=O)N[C@@H](Cc1ccccc1)C(=O)N[C@]1(C)CCCCCCC=CCCC[C@@](C)(C(=O)N[C@@H](CO)C(=O)N[C@@H](C)C(=O)N[C@@H](C)C(=O)N[C@@H](CCC(=O)O)C(N)=O)NC(=O)[C@H](CC(C)C)NC(=O)[C@H](CC(C)C)NC(=O)[C@H](C)NC(=O)[C@H](Cc2c[nH]c3ccccc23)NC(=O)[C@H](Cc2ccc(O)cc2)NC(=O)[C@H](CCC(=O)O)NC1=O)[C@@H](C)O [MP-141] | < 0.001 | 8.71 | > 50 | 2.385 | > 50 | 5.36 | – | – |
| CC(=O)N[C@@H](CCCCN)C(=O)N[C@@H](CCCCN)C(=O)N[C@H](C(=O)N[C@@H](CO)C(=O)N[C@@H](Cc1ccccc1)C(=O)N[C@]1(C)CCCCCCC=CCCC[C@@](C)(C(N)=O)NC(=O)[C@H](CC(C)C)NC(=O)[C@H](CC(C)C)NC(=O)[C@H](C)NC(=O)[C@H](Cc2c[nH]c3ccccc23)NC(=O)[C@H](Cc2ccc(O)cc2)NC(=O)[C@H](CCC(=O)O)NC1=O)[C@@H](C)O [MP-142] | 0.0422 | 72.79 | 46.7 | 22.09 | 20.2 | 15.2 | – | – |
| CC(=O)N[C@H](C(=O)N[C@@H](CO)C(=O)N[C@@H](Cc1ccc2ccccc2c1)C(=O)N[C@]1(C)CCCCCCC=CCCC[C@@](C)(C(=O)N[C@@H](CO)C(=O)N[C@@H](C)C(=O)N[C@@H](C)C(=O)N[C@@H](CCC(=O)O)C(N)=O)NC(=O)[C@H](CC(C)C)NC(=O)[C@H](CC(C)C)NC(=O)[C@H](C)NC(=O)[C@H](Cc2c[nH]c3ccccc23)NC(=O)[C@H](Cc2ccc(O)cc2)NC(=O)[C@H](CCC(=O)O)NC1=O)[C@@H](C)O [MP-144] (Ac-TS[2Nal][R8]EYWALL[S5]SAAE-NH2; staple 4-11) | 46.7 | 83.26 | 15.6 | -3.58 | > 50 | 5.01 | – | – |
| CC(=O)N[C@H](C(=O)N[C@@H](CO)C(=O)N[C@@H](Cc1ccc2ccccc2c1)C(=O)N[C@]1(C)CCCCCCC=CCCC[C@@](C)(C(N)=O)NC(=O)[C@H](CC(C)C)NC(=O)[C@H](CC(C)C)NC(=O)[C@H](C)NC(=O)[C@H](Cc2c[nH]c3ccccc23)NC(=O)[C@H](Cc2ccc(O)cc2)NC(=O)[C@H](CCC(=O)O)NC1=O)[C@@H](C)O [MP-145] (Ac-TS[2Nal][R8]EYWALL[S5]-NH2; staple 4-11) | 4.33 | 48.85 | 36.5 | 30.02 | > 50 | 23.8 | – | – |
| CC(=O)N[C@H](C(=O)N[C@@H](CO)C(=O)N[C@@H](Cc1ccc2ccccc2c1)C(=O)N[C@]1(C)CCCCCCC=CCCC[C@@](C)(C(=O)N[C@@H](CCC(=O)O)C(N)=O)NC(=O)[C@H](CC(C)C)NC(=O)[C@H](CC(C)C)NC(=O)[C@H](C)NC(=O)[C@H](Cc2c[nH]c3ccccc23)NC(=O)[C@H](Cc2ccc(O)cc2)NC(=O)[C@H](CCC(=O)O)NC1=O)[C@@H](C)O [MP-146] (Ac-TS[2Nal][R8]EYWALL[S5]E-NH2; staple 4-11) | 0.499 | 16.49 | > 50 | 1.205 | > 50 | 43.3 | – | – |
| CC(=O)N[C@H](C(=O)N[C@@H](CO)C(=O)N[C@@H](Cc1ccccc1)C(=O)NC(C)(C)C(=O)N[C@@H](CCC(=O)O)C(=O)N[C@@H](Cc1ccc(O)cc1)C(=O)N[C@@H](Cc1c[nH]c2ccccc12)C(=O)N[C@@H](C)C(=O)N[C@@H](CC(C)C)C(=O)N[C@@H](CC(C)C)C(=O)NC(C)(C)C(N)=O)[C@@H](C)O [MP-153] | 0.133 | 0.7534 | > 50 | 16.18 | > 50 | 34.2 | – | – |
| CC(=O)N[C@@H](CCCCN)C(=O)N[C@@H](CCCCN)C(=O)N[C@@H](CCCCN)C(=O)NCCCCCC(=O)N[C@H](C(=O)N[C@@H](CO)C(=O)N[C@@H](Cc1ccccc1)C(=O)N[C@]1(C)CCCCCCC=CCCC[C@@](C)(C(=O)N[C@@H](CCC(=O)O)C(=O)N[C@@H](CC(N)=O)C(=O)N[C@@H](Cc2ccccc2)C(N)=O)NC(=O)[C@H](CC(C)C)NC(=O)[C@H](CC(C)C)NC(=O)[C@H](C)NC(=O)[C@H](Cc2c[nH]c3ccccc23)NC(=O)[C@H](Cc2ccc(O)cc2)NC(=O)[C@H](CCC(=O)O)NC1=O)[C@@H](C)O [MP-5364] (Ac-KKK[Ahx]TSF[R8]EYWALL[S5]ENF-NH2; staple 8-15) | 0.0391 | – | > 50 | 62.33 | 31.9 | 2.55 | 3.12 | 4.96 |
